Molecular target: T1, CCDC6-RET (Homo sapiens, UniProt P07949+Q16204+Q96SW2)
T1 construct: CCDC6 (natural N-terminal fusion partner, UniProt Q16204); endogenous in cells; host or cells: TPC-1 (parental, papillary thyroid carcinoma)
Experiment: Cellular RET degradation, AlphaLISA, TPC-1 cell line
Format: cell-based
Settings: for Dmax: TPC1, human, 24 h, read-out: Cell Density TPC-1/CCDC6-RET Ymax %; for DC50: read-out: Cell Density TPC-1/CCDC6-RET DC50, half-maximal degradation concentration, TPC-1 (CCDC6-RET), 24 hrs
Procedure, shortened: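 Luminescent AlphaLISA read of RET abundance in lysates after 24 h compound exposure (37 °C, 2% FBS DMEM) of CCDC6-RET-bearing TPC-1 cells. % degradation relative to DMSO (high) and media (low) controls, fitted to 4-parameter logistic curve for DC50 and Ymax.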

T1 sequence (Q16204+P07949 fused): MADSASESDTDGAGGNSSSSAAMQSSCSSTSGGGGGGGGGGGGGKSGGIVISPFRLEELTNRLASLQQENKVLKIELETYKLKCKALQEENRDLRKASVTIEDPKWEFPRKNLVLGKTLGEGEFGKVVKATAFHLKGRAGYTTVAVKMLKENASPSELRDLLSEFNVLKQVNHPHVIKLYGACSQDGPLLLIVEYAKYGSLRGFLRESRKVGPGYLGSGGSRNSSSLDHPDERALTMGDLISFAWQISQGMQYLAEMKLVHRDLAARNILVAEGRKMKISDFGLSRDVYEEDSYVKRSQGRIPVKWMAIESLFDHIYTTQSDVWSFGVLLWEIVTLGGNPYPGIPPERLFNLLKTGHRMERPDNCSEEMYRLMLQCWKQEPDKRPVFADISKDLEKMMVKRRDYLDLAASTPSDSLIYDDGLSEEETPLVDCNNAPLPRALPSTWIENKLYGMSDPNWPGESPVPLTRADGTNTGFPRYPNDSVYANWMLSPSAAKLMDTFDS
T1 sequence (Q96SW2 whole entry, the tested form may be a part): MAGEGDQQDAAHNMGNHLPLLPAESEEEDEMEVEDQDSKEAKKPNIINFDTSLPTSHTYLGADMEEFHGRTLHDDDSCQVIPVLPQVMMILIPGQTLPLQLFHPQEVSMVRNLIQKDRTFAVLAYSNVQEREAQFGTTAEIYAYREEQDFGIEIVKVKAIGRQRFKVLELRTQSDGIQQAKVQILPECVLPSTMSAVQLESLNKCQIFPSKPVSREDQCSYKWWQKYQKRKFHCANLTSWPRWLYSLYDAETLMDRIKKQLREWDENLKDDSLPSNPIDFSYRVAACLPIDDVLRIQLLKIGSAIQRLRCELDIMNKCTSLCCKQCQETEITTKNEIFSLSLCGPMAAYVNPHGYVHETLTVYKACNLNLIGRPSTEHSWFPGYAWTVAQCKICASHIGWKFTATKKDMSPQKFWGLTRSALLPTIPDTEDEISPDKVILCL
T1 sequence (Q16531 whole entry partner, the tested form may be a part): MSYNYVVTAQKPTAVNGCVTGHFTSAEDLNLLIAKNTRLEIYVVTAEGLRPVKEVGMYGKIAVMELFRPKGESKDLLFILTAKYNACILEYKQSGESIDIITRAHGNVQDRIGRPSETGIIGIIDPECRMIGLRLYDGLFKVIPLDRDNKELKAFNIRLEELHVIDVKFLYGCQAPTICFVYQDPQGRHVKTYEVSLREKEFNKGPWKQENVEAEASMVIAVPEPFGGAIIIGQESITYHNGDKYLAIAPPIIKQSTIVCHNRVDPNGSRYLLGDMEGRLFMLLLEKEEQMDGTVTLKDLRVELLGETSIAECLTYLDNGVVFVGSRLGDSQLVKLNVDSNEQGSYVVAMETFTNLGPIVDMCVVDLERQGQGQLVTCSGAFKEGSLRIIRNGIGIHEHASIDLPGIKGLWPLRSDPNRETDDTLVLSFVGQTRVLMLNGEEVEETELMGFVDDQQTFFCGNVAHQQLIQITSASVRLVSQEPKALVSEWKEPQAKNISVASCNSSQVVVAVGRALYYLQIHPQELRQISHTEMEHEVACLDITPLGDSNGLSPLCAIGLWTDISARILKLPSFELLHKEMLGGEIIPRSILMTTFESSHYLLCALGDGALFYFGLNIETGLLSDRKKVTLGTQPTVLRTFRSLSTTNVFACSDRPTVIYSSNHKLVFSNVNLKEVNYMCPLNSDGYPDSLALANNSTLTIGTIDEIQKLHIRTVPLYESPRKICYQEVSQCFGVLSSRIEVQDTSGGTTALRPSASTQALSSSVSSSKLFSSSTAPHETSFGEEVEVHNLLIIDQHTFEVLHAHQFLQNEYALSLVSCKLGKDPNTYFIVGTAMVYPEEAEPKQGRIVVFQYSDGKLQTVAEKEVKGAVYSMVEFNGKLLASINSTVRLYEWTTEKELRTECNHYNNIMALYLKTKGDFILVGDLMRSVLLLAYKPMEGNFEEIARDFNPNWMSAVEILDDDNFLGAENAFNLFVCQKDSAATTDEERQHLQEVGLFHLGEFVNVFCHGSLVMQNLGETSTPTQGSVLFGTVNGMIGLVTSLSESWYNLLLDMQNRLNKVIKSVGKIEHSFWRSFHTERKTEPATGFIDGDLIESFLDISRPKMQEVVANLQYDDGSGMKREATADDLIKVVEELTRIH

SMILES	Dmax [%]	DC50 [nM]
CCOc1cc(-c2ccc(N3CCC(CN4CCN(CC5CCN(C(=O)Cc6cccc7c6CN(C6CCC(=O)NC6=O)C7=O)CC5)CC4)(NC(=O)c4cc(F)ccc4F)CC3)nc2)c2c(C#N)cnn2c1 (stereo not shown) [Example 111, N-[1-(5-{3-cyano-6-ethoxypyrazolo[1,5-a]pyridin-4-yl}pyridin-2-yl)-4-({4-[(1-{2-[2-(2,6-dioxopiperidin-3-yl)-1-oxo-2,3-dihydro-1H-isoindol-4-yl]acetyl}piperidin-4-yl)methyl]piperazin-1-yl}methyl)piperidin-4-yl]-2,5-difluorobenzamide]	60 to 90	2 to 10
CCOc1cc(-c2ccc(N3CCC(COCc4cn(CCCCCCN5CCN(c6ccc7c(c6)CN(C6CCC(=O)NC6=O)C7=O)CC5)nn4)(NC(=O)c4cc(F)ccc4F)CC3)nc2)c2c(C#N)cnn2c1 (stereo not shown) [Example 47, N-[1-[5-(3-cyano-6-ethoxy-pyrazolo[1,5-a]pyridin-4-yl)-2-pyridyl]-4-[[1-[6-[4-[2-(2,6-dioxo-3-piperidyl)-1-oxo-isoindolin-5-yl]piperazin-1-yl]hexyl]triazol-4-yl]methoxymethyl]-4-piperidyl]-2,5-difluoro-benzamide]	> 90	2 to 10
CCOc1cc(-c2ccc(N3CCC(CN(C)C(=O)CCCCCCN4CCC(c5ccc6c(c5)CN(C5CCC(=O)NC5=O)C6=O)CC4)(NC(=O)c4cc(F)ccc4F)CC3)nc2)c2c(C#N)cnn2c1 (stereo not shown) [Example 140, N-[1-(5-{3-cyano-6-ethoxypyrazolo[1,5-a]pyridin-4-yl}pyridin-2-yl)-4-[(7-{4-[2-(2,6-dioxopiperidin-3-yl)-1-oxo-2,3-dihydro-1H-isoindol-5-yl]piperidin-1-yl}-N-methylheptanamido)methyl]piperidin-4-yl]-2,5-difluorobenzamide]	> 90	2 to 10
CCOc1cc(-c2ccc(N3CCC(Cc4ccccc4)(NC(=O)CN4CCN(C(=O)CCN5CCC(c6ccc7c(c6)C(=O)N(C6CCC(=O)NC6=O)C7)CC5)CC4)CC3)nc2)c2c(C#N)cnn2c1 (stereo not shown) [Example 53, N-[4-benzyl-1-[5-(3-cyano-6-ethoxy-pyrazolo[1,5-a]pyridin-4-yl)-2-pyridyl]-4-piperidyl]-2-[4-[3-[4-[2-(2,6-dioxo-3-piperidyl)-3-oxo-isoindolin-5-yl]-1-piperidyl]propanoyl]piperazin-1-yl]acetamide]	60 to 90	10 to 100
CCOc1cc(-c2ccc(N3CCC(NC(=O)c4cc(F)ccc4F)(C(=O)NCCCCCCNc4cccc5c(N6CCC(=O)NC6=O)nn(C)c45)CC3)nc2)c2c(C#N)cnn2c1 [Example 149, 1-(5-{3-cyano-6-ethoxypyrazolo[1,5-a]pyridin-4-yl}pyridin-2-yl)-4-(2,5-difluorobenzamido)-N-(6-{[3-(2,4-dioxo-1,3-diazinan-1-yl)-1-methyl-1H-indazol-7-yl]amino}hexyl)piperidine-4-carboxamide]	> 90	< 2
CCOc1cc(-c2ccc(N3CCC(CN4CCC(CN5CCN(c6ccc7c(c6)CN(C6CCC(=O)NC6=O)C7=O)CC5)CC4)(NC(=O)c4cc(F)ccc4F)CC3)nc2)c2c(C#N)cnn2c1 (stereo not shown) [Example 69, N-(1-(5-(3-cyano-6-ethoxypyrazolo[1,5-a]pyridin-4-yl)pyridin-2-yl)-4-((4-((4-(2-(2,6-dioxopiperidin-3-yl)-1-oxoisoindolin-5-yl)piperazin-1-yl)methyl)piperidin-1-yl)methyl)piperidin-4-yl)-2,5-difluorobenzamide]	> 90	< 2
CCOc1cc(-c2ccc(N3CCC(CN4CCN(CC5CCN(C(=O)COc6ccc7c(c6)CN(C6CCC(=O)NC6=O)C7=O)CC5)CC4)(NC(=O)c4cc(F)ccc4F)CC3)nc2)c2c(C#N)cnn2c1 (stereo not shown) [Example 114, N-[1-(5-{3-cyano-6-ethoxypyrazolo[1,5-a]pyridin-4-yl}pyridin-2-yl)-4-[(4-{[1-(2-{[2-(2,6-dioxopiperidin-3-yl)-1-oxo-2,3-dihydro-1H-isoindol-5-yl]oxy}acetyl)piperidin-4-yl]methyl}piperazin-1-yl)methyl]piperidin-4-yl]-2,5-difluorobenzamide]	60 to 90	< 2
CCOc1cc(-c2ccc(N3CCC(Cc4ccccc4)(NC(=O)N4CCC(CN5CCC(c6ccc7c(c6)C(=O)N(C6CCC(=O)NC6=O)C7)CC5)CC4)CC3)nc2)c2c(C#N)cnn2c1 (stereo not shown) [Example 55]	60 to 90	2 to 10
CCOc1cc(-c2ccc(N3CCC(CN4CCC5(CCC(CC(=O)N6CCN(c7ccc8c(c7)C(=O)N(C7CCC(=O)NC7=O)C8)CC6)CC5)CC4)(NC(=O)c4cc(F)ccc4F)CC3)nc2)c2c(C#N)cnn2c1 (stereo not shown) [Example 123, N-[1-(5-{3-cyano-6-ethoxypyrazolo[1,5-a]pyridin-4-yl}pyridin-2-yl)-4-{[9-(2-{4-[2-(2,6-dioxopiperidin-3-yl)-3-oxo-2,3-dihydro-1H-isoindol-5-yl]piperazin-1-yl}-2-oxoethyl)-3-azaspiro[5.5]undecan-3-yl]methyl}piperidin-4-yl]-2,5-difluorobenzamide]	> 90	2 to 10
CCOc1cc(-c2ccc(N3CCC(COCC(=O)NCCCCCCN4CCN(c5ccc6c(c5)CN(C5CCC(=O)NC5=O)C6=O)CC4)(NC(=O)c4cc(F)ccc4F)CC3)nc2)c2c(C#N)cnn2c1 (stereo not shown) [Example 38, N-[1-[5-(3-cyano-6-ethoxy-pyrazolo[1,5-a]pyridin-4-yl)-2-pyridyl]-4-[[2-[6-[4-[2-(2,6-dioxo-3-piperidyl)-1-oxo-isoindolin-5-yl]piperazin-1-yl]hexylamino]-2-oxo-ethoxy]methyl]-4-piperidyl]-2,5-difluoro-benzamide]	> 90	< 2
CCOc1cc(-c2ccc(N3CCC(Cc4ccccc4)(NC(=O)C4CCN(C(=O)CCN5CCC(c6ccc7c(c6)CN(C6CCC(=O)NC6=O)C7=O)CC5)CC4)CC3)nc2)c2c(C#N)cnn2c1 (stereo not shown) [Example 66, N-[4-benzyl-1-(5-{3-cyano-6-ethoxypyrazolo[1,5-a]pyridin-4-yl}pyridin-2-yl)piperidin-4-yl]-1-(3-{4-[2-(2,6-dioxopiperidin-3-yl)-1-oxo-2,3-dihydro-1H-isoindol-5-yl]piperidin-1-yl}propanoyl)piperidine-4-carboxamide]	60 to 90	< 2
CCOc1cc(-c2ccc(N3CCC(NC(=O)c4cc(F)ccc4F)(C(=O)NCCCCCCN4CCC(c5ccc6c(c5)C(=O)N(C5CCC(=O)NC5=O)C6)CC4)CC3)nc2)c2c(C#N)cnn2c1 (stereo not shown) [Example 163, 1-(5-{3-cyano-6-ethoxypyrazolo[1,5-a]pyridin-4-yl}pyridin-2-yl)-4-(2,5-difluorobenzamido)-N-(6-{4-[2-(2,6-dioxopiperidin-3-yl)-3-oxo-2,3-dihydro-1H-isoindol-5-yl]piperidin-1-yl}hexyl)piperidine-4-carboxamide]	60 to 90	2 to 10

Other lines, results leading:

Dmax [%]	DC50 [nM]	SMILES
60 to 90	100 to 2000	CCOc1cc(-c2ccc(N3CCC(CN4CCN(C(=O)CCCCCCCCCCCCCCNC(=O)COc5cccc6c5CN(C5CCC(=O)NC5=O)C6=O)CC4)(NC(=O)c4cc(F)ccc4F)CC3)nc2)c2c(C#N)cnn2c1 (stereo not shown) [Example 30, N-[1-(5-{3-cyano-6-ethoxypyrazolo[1,5-a]pyridin-4-yl}pyridin-2-yl)-4-({4-[15-(2-{[2-(2,6-dioxopiperidin-3-yl)-1-oxo-2,3-dihydro-1H-isoindol-4-yl]oxy}acetamido)pentadecanoyl]piperazin-1-yl}methyl)piperidin-4-yl]-2,5-difluorobenzamide]
60 to 90	2 to 10	CCOc1cc(-c2ccc(N3CCC(CN4CCN(C(=O)CCCCCCNC(=O)COc5cccc6c5CN(C5CCC(=O)NC5=O)C6=O)CC4)(NC(=O)c4cc(F)ccc4F)CC3)nc2)c2c(C#N)cnn2c1 (stereo not shown) [Example 27, N-[1-(5-{3-cyano-6-ethoxypyrazolo[1,5-a]pyridin-4-yl}pyridin-2-yl)-4-({4-[7-(2-{[2-(2,6-dioxopiperidin-3-yl)-1-oxo-2,3-dihydro-1H-isoindol-4-yl]oxy}acetamido)heptanoyl]piperazin-1-yl}methyl)piperidin-4-yl]-2,5-difluorobenzamide]
60 to 90	10 to 100	CCOc1cc(-c2ccc(N3CCC(CN4CCN(C(=O)CCCCCCCCNc5ccc(C6CCC(=O)NC6=O)cc5)CC4)(NC(=O)c4cc(F)ccc4F)CC3)nc2)c2c(C#N)cnn2c1 (stereo not shown) [Example 21, N-[1-(5-{3-cyano-6-ethoxypyrazolo[1,5-a]pyridin-4-yl}pyridin-2-yl)-4-{[4-(9-{[4-(2,6-dioxopiperidin-3-yl)phenyl]amino}nonanoyl)piperazin-1-yl]methyl}piperidin-4-yl]-2,5-difluorobenzamide]
> 90	2 to 10	CCOc1cc(-c2ccc(N3CCC(CN4CCN(C(=O)CCCCCCCCNc5ccc6c(C7CCC(=O)NC7=O)nn(C)c6c5)CC4)(NC(=O)c4cc(F)ccc4F)CC3)nc2)c2c(C#N)cnn2c1 (stereo not shown) [Example 25, N-[1-(5-{3-cyano-6-ethoxypyrazolo[1,5-a]pyridin-4-yl}pyridin-2-yl)-4-{[4-(9-{[3-(2,6-dioxopiperidin-3-yl)-1-methyl-1H-indazol-6-yl]amino}nonanoyl)piperazin-1-yl]methyl}piperidin-4-yl]-2,5-difluorobenzamide]
60 to 90	10 to 100	CCOc1cc(-c2ccc(N3CCC(CN4CCN(C(=O)CCCCCCCCCCNC(=O)COc5cccc6c5CN(C5CCC(=O)NC5=O)C6=O)CC4)(NC(=O)c4cc(F)ccc4F)CC3)nc2)c2c(C#N)cnn2c1 (stereo not shown) [Example 28, N-[1-(5-{3-cyano-6-ethoxypyrazolo[1,5-a]pyridin-4-yl}pyridin-2-yl)-4-({4-[11-(2-{[2-(2,6-dioxopiperidin-3-yl)-1-oxo-2,3-dihydro-1H-isoindol-4-yl]oxy}acetamido)undecanoyl]piperazin-1-yl}methyl)piperidin-4-yl]-2,5-difluorobenzamide]

From patent US20260356830A1, “COMPOUNDS FOR MODULATING RET PROTEIN” (Bristol-Myers Squibb Company, priority 2022, published 2026)
